Experimental data published in the METLIN SMRT retention time set (Domingo-Almenara et al. 2019).

Assay: gradient 5% acetonitrile 3 min, to 50% in 2 min, to 85% in 15 min, held 3 min, 100 µL/min
Conditions: column: Zorbax Extend-C18 2.1 x 50 mm; eluents: water / acetonitrile, 0.1% formic acid
Summary of the method: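 Pure standards were analyzed in mixtures of ~100 molecules using HPLC coupled to a quadrupole time-of-flight mass spectrometer, in both positive and negative ionization mode. Separation used a Zorbax Extend-C18 column (2.1 × 50 mm, 1.8 μm) at 100 μL/min, with water and acetonitrile each containing 0.1% formic acid. Dead and dwell volumes were 40 μL and 900 μL, and data were collected over 3 months. Retention time was read from computationally picked adduct peaks, each inspected manually.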

Row | RP-LC retention time | Structure (SMILES)
1 | 1140 s | CCc1nc(-c2csc(S(=O)(=O)N3CCCC(C(=O)N(C)c4ccc(C)c(C)c4)C3)c2)no1 (centres undefined)
2 | 976 s | O=C(Nc1ccc(F)cc1F)C1CCCN(S(=O)(=O)Cc2ccc(F)cc2)C1 (centres undefined)
3 | 588 s | COc1ccc(OC)c(S(=O)(=O)NCCN2CCN(c3ccccc3F)CC2)c1
4 | 812 s | CCc1ccc(-c2cc3c(=O)n(CC(=O)NCCCN4CCCC4=O)nc(C)n3n2)cc1
5 | 1070 s | Cc1ccc2[nH]cc(CCNC(=O)c3sc4ncccc4c3-n3cccc3)c2c1
6 | 819 s | CCOCCCNC(=O)C1CCN(c2cc(Oc3cccc(C)c3C)ncn2)CC1
7 | 645 s | COc1ccc(CCc2nc3nccc(-c4ccncc4)n3n2)cc1OC
8 | 677 s | O=C(Cc1cccc(F)c1)N1CCCCC1c1nncn1CC1CC1 (centres undefined)
9 | 626 s | Cc1ccc(N2CCN(C(=O)c3cn4c(n3)CCCC4)CC2)cc1
10 | 986 s | CN(C)c1ccc(C(=O)N2CCCC2c2nc(-c3ccccc3)no2)cc1 (centres undefined)
11 | 778 s | Cc1ccc(OCc2nc(-c3cccc(-c4ccn[nH]4)c3)no2)cc1
12 | 692 s | CCCC(NC(=O)Cc1cccs1)C(=O)Nc1nc2ccccc2[nH]1 (centres undefined)
13 | 883 s | Cc1nc(N2CCOCC2)c2c(C(=O)Nc3ccc(Cl)cc3)c(C)oc2n1
14 | 607 s | CC(C)c1nc2cccnc2n1CCN1CCN(C(=O)Nc2ccccc2Cl)CC1
15 | 963 s | Cc1nc(C2(C)CCN(S(=O)(=O)c3ccccc3C(F)(F)F)CC2)no1
16 | 665 s | COc1ccc(-c2cc3n(n2)CCCN(C(=O)c2cccnc2)C3)cc1
17 | 883 s | CN(C)Cc1cc(C(F)(F)F)ccc1C(O)(c1ccccc1)c1ccccc1
18 | 1190 s | COc1ccc(-c2noc(-c3nnn4c3COC(c3ccc(Cl)cc3)C4)n2)cc1 (centres undefined)
19 | 972 s | COc1ccc(C2(C(=O)N3CC(c4nc(CCOCc5ccccc5)no4)C3)CC2)cc1
20 | 734 s | Cn1nc(C(=O)N2CCCC2)c2c1CCN(C(=O)CCC(=O)NCCC1=CCCCC1)C2
21 | 771 s | O=C(Cc1cccc(F)c1)NC(c1ccccc1)c1nnc(N2CCCC2)o1 (centres undefined)
22 | 837 s | O=C(Cc1ccccc1Br)N1CCN(c2cc(-c3cccs3)[nH]n2)CC1
23 | 592 s | CC1CCCC(C)N1CCCNC(=O)C1CCCN(c2ncnc3c2nc2n3CCCCC2)C1 (centres undefined)
24 | 695 s | O=C(NCc1c(F)cccc1F)c1csc(Nc2ncccn2)n1
25 | 718 s | CC(C(=O)N1CCOCC1)C1CCN(C(=O)c2ccc3nc(-c4ccccc4)oc3c2)CC1 (centres undefined)
26 | 921 s | COc1ccc(OC)c(CCN2CC(=O)N(c3ccc(C)c(Cl)c3)[C@@H]3CS(=O)(=O)C[C@@H]32)c1

Row | RP-LC retention time | Structure (SMILES)
27 | 1160 s | COc1cccc(S(=O)(=O)N2CCC3(CC2)C(OC)CN3c2cccc(F)c2)c1 (centres undefined)
28 | 599 s | O=C(NCc1cccc(Br)c1)c1ccc2c(c1)ncn2CCN1CCCC1
29 | 617 s | CC(C)CN1C(=O)c2cccn2CC1C(=O)NCCCN1CCCC1=O (centres undefined)
30 | 947 s | Cc1ccccc1C(=O)Nc1cc(-c2cccs2)no1
31 | 899 s | O=C(NC(c1ccccc1)c1nnc(N2CCCC2)o1)c1ccc(F)c(Cl)c1 (centres undefined)
32 | 540 s | CCOC(=O)N1CCN(C(=S)Nc2ccc3nc(N4CCN(C)CC4)cc(C)c3c2)CC1
33 | 738 s | CC(C)N(C(=O)Cn1c(CN2CCCCC2)nc2ccccc21)c1ccccc1
34 | 732 s | COCCN1C(=O)Cc2ccccc2C1C(=O)NCc1ccccc1F (centres undefined)
35 | 824 s | C=CCn1c(C)c(CC(=O)NC(C)CC)c(=O)n2nc(-c3ccc(C)cc3)nc12 (centres undefined)
36 | 954 s | Cn1cc2nc(SCC(=O)Nc3ccc(Cl)cc3F)n(CC3CC3)c(=O)c2n1
37 | 712 s | O=C(c1ccc(F)cc1)N1CCC(n2c(-c3ccoc3)nc3cccnc32)C1 (centres undefined)
38 | 667 s | CC1CCc2onc(C(=O)N3CCN(Cc4ccc5c(c4)OCO5)CC3)c2C1 (centres undefined)
39 | 1100 s | Cc1oc(-c2ccc(OC(C)C)cc2)nc1CSc1nc2ncccc2o1
40 | 703 s | Cc1nc(S(=O)(=O)N2CCc3c(c(-c4nnc(-c5ccccc5F)o4)nn3C)C2)cn1C
41 | 989 s | CCCCC(=O)NC1(C(F)(F)F)C(=O)N(Cc2ccccc2)C(C)=C1C(=O)OC (centres undefined)
42 | 633 s | CCN(CC)CCNC(=O)CN1C(=O)C2CCCCN2c2ccc(S(=O)(=O)N3CCCC3)cc21 (centres undefined)
43 | 818 s | O=C(Nc1cccn2c(C3CCC3)nnc12)c1cc2ccccc2[nH]1
44 | 834 s | O=S(=O)(c1cccn2cnnc12)N(Cc1ccc(F)cc1)c1ccc(F)cc1
45 | 654 s | CCCCN(C)C(=O)CCC1CCN(c2cc(NC3CC3)ncn2)CC1
46 | 656 s | COCCOCc1nc(C2CCCN2C(=O)c2ccoc2)no1 (centres undefined)
47 | 1030 s | O=S(=O)(c1cc(-c2nnc(C3CCC3)o2)co1)N1CCc2ccccc2C1
48 | 785 s | O=C(c1cn(-c2cc(N3CCCCC3)ncn2)cn1)N1CCN(c2ncccn2)CC1
49 | 706 s | O=[N+]([O-])c1ccc(CSc2nnc(-c3ccncc3)n2-c2ccccc2)cc1
50 | 619 s | CCCC(=O)Nc1ccc(S(=O)(=O)NCC(C)(O)COC)cc1 (centres undefined)
51 | 670 s | Cc1ccc(CNC(=O)c2cn3ccc(C)cc3n2)cc1
52 | 927 s | COC(=O)c1ccc(CSc2nnc(N3CCN(c4ccc(F)cc4)CC3)s2)o1

More lines, now with the values behind:

Row | Structure (SMILES) | RP-LC retention time
53 | Cc1cc(C)cc(NC(=O)CN2CCC(C(=O)NC3CC3)CC2)c1 | 564 s
54 | Cn1c(=O)sc2cc(S(=O)(=O)N3CCC(C(=O)NCCc4ccccc4)CC3)ccc21 | 830 s
55 | CN(C)c1ccc(C(CNC(=O)c2ccc(Br)o2)N2CCOCC2)cc1 (centres undefined) | 626 s
56 | Cn1cc(C(=O)NCc2ccccc2Cl)c(S(=O)(=O)N2CCSCC2)n1 | 890 s
57 | Cc1nn(CC(=O)NCc2ccco2)c(=O)c2c(C)n(-c3ccccc3)nc12 | 764 s
58 | Cc1cc(S(=O)(=O)N(C)CC2CCOCC2)ccc1F | 879 s
59 | CCN(C(=O)C1CCCN(c2ncnc3c2nc2n3CCCCC2)C1)c1ccccc1C (centres undefined) | 890 s
60 | COC(=O)CC1=CC(SCC(=O)N2CCN(c3ccccc3)CC2)=Nc2ccccc2N1 | 1080 s
61 | O=C(NCc1[nH]nc2ccccc12)c1cccc2[nH]ccc12 | 657 s
62 | CN1c2cc(C(=O)NCc3ccc(OC(F)(F)F)cc3)ccc2C(=O)N2CCCCC21 (centres undefined) | 932 s
63 | CCn1c(=O)c2ccn(CC(=O)N3CCN(Cc4ccc5c(c4)OCO5)CC3)c2n(CC)c1=O | 591 s
64 | COc1ccc(NC(=O)Cn2nc3n(c2=O)CCCC3)cc1Cl | 674 s
65 | Cc1cccc(-c2noc(CN3C(=O)COc4ccc(Cl)cc43)n2)c1 | 1160 s
66 | O=C(Cn1cnc2nc(N3CCOCC3)ncc2c1=O)NCc1cccc(C(F)(F)F)c1 | 687 s
67 | Cn1c(CNC(=O)c2ccc3c(c2)N(S(C)(=O)=O)CC3)nc2ccccc21 | 604 s
68 | O=C(NC1CCCCC1)c1ccc2ncnc(N3CCCCC3)c2c1 | 658 s
69 | O=C(c1csc(S(=O)(=O)N2CCC(C(=O)N3CCCC3)CC2)c1)N1CCCCCC1 | 769 s
70 | O=C(CC(=O)N1CCN(C2CCCCC2)CC1)Nc1ccc2nc3n(c(=O)c2c1)CCCCC3 | 554 s
71 | O=C(NCCc1c[nH]c2ccc(Cl)cc12)c1ccc(F)cc1-n1cnnn1 | 805 s

Row | Structure (SMILES) | RP-LC retention time
72 | COc1ccc(-c2nc(C3CC(=O)N(c4ccc(Cl)cc4)C3)no2)cc1F (centres undefined) | 1030 s
73 | CCn1nc(C)c(CCNC(=O)Nc2ccccc2C(=O)OC)c1C | 646 s
74 | CCCNC(=O)N1CCN(Cc2nc3cccnc3n2-c2ccccc2)CC1 | 597 s
75 | Cc1csc(-c2cc(S(=O)(=O)N3CCCc4ccccc43)c(C)s2)n1 | 1210 s
76 | CCNC(=O)N1CCC(CCOc2cccnc2)CC1 | 579 s
77 | COc1ccc(S(=O)(=O)N2CCN(c3cc(C)nc(NC4CCCCC4)n3)CC2)cc1OC | 756 s
78 | O=C(NCCCN1CCOCC1)C1=C2CCCN2c2ccc(F)cc2S1(=O)=O | 576 s
79 | CCOC(=O)CNC(=O)N1CCCN(C2=NS(=O)(=O)C(c3ccc(C)cc3)=C2C)CC1 | 743 s
80 | CCC(=O)N1C[C@@H]2C(=O)N(CCc3ccccc3)C(=O)[C@@H]2C1 | 702 s
81 | CC12CCC(C1)C(C)(C)C2OC(=O)c1ccccc1C(=O)O (centres undefined) | 1130 s
82 | Cc1ccc(C(=O)Nc2ccc3ncnc(N4CCCCC4)c3c2)s1 | 701 s
83 | CCn1nc(-c2csc(S(=O)(=O)N3CCCCC3C)c2)ccc1=O (centres undefined) | 896 s
84 | O=C(N1CCC(c2nc(C3CCOCC3)no2)CC1)C1(c2ccccc2)CC1 | 817 s
85 | CN1CCCn2nc(C3CCN(C(=O)CC(C)(C)C)CC3)cc2C1=O | 654 s
86 | O=C(NCCN1CCCC1)C1CCCN(c2ccc(Sc3ccc(Br)cc3)nn2)C1 (centres undefined) | 663 s
87 | Cc1cc2c(c(=O)n(-c3ccccc3)c(=O)n2CC(=O)Nc2ccc(F)c(Cl)c2)n1C | 902 s
88 | Cc1ccc(C(=O)NCCc2nc3cccnc3n2C(C)C)cc1C | 695 s
89 | O=C(Nc1ccccc1F)C1CCCN(S(=O)(=O)c2c[nH]c(C(=O)N3CCCC3)c2)C1 (centres undefined) | 772 s
